One may read the IC50 as the concentration needed to halve the response being measured. For orientation: CC50 means the concentration giving 50% cytotoxicity.

The source made the active and inactive calls. The rule behind the calls is not given here. Where only a bound is given, the exact number is not on record here.

Series [1] has as its system Japanese encephalitis virus. Description: Antiviral activity against Japanese encephalitis virus infected in human TE671 cells assessed as decline in infected cell apoptotic fraction by measuring proportion of cells at subG1 phase treated immediately post-infection measured at 36 hrs post-infection by PI-staining based flow cytometric analysis. The class given is functional, organism-based. The note with it: for IC50: TE-671, 36 h. (Flow cytometry measures light scatter and fluorescence of single cells or particles in a stream.)

Series [2] is described as follows: Therapeutic index, ratio of CC50 for human TE671 cells to IC50 for antiviral activity against Japanese encephalitis virus infected in human TE671 cells assessed as reduction in virus yield by plaque assay. Format: toxicity, cell-based. The note with it: read-out: Ratio CC50/IC50.
Series [3] has as its system Japanese encephalitis virus. The series is described as follows: Inhibition of synthesis of Japanese encephalitis virus RNA genome transfected as EGFP replicon in human TE671 cells assessed as lowered ratio of negative to positive sense strand RNA at 10 uM treated at 1 hr post-transfection and measured at 36 hrs post treatment by RT-PCR analysis. The class given is functional, organism-based. For orientation: Replicon systems follow genome replication, usually without infectious particles.

In series [4] the test system is Japanese encephalitis virus. The series is described as follows: Antiviral activity against Japanese encephalitis virus infected in human TE671 cells assessed as reduction in virus entry at late stage by measuring decrease in NS3-positive cells at 1 to 10 uM treated at 1 hr post-infection followed by virus/compound mixture wash-out at 1 hr post-incubation followed by culturing of cells for 24 hrs by DAPI-staining based immunofluorescence analysis. The class given is functional, organism-based.

Series [5] concerns Japanese encephalitis virus. Description: Antiviral activity against Japanese encephalitis virus infected in human TE671 cells assessed as reduction in virus-induced cytopathic effect at 10 to 100 uM treated immediately post-infection measured at 36 hrs post-infection by inverted microscopic analysis. Format: functional, organism-based. For orientation: Protection from cytopathic effect is a common read-out in antiviral testing.

Series [6] has as its system Japanese encephalitis virus. The series is described as follows: Antiviral activity against Japanese encephalitis virus infected in human TE671 cells assessed as inhibition of extracellular viral particles production by measuring reduction in virus yield measured after 36 hrs by plaque assay. The class given is functional, organism-based. As to conditions: for IC50: TE-671, 36 h.

The subject of series [7] is Japanese encephalitis virus. The series is described as follows: Antiviral activity against Japanese encephalitis virus infected in human TE671 cells assessed as reduction in virus infectivity by measuring decrease in NS3-positive cells treated immediately post-infection measured after 24 hrs by DAPI-staining based immunofluorescence analysis. The class given is functional, organism-based. The note with it: for IC50: TE-671, 24 h.

Series [8] can be described thus: Cytotoxicity against human TE671 cells assessed as reduction in cell viability after 48 hrs by MTT assay. The class given is cell-based, TE-671.
Series [9] relates to Japanese encephalitis virus. The series is described as follows: Antiviral activity against Japanese encephalitis virus infected in human TE671 cells assessed as reduction in virus entry at late stage by measuring decrease in NS3-positive cells treated at 1 hr post-infection followed by virus/compound mixture wash-out at 1 hr post-incubation followed by culturing of cells for 24 hrs by DAPI-staining based immunofluorescence analysis. The class given is functional, organism-based. As to conditions: TE-671.

The subject of series [10] is Japanese encephalitis virus. The series is described as follows: Antiviral activity against Japanese encephalitis virus infected in human TE671 cells assessed as reduction in virus entry at early stage by measuring decrease in NS3-positive cells treated immediately after viral infection followed by virus/compound mixture wash-out at 1 hr post-incubation followed by culturing of cells for 24 hrs by DAPI-staining based immunofluorescence analysis. Format: functional, organism-based. As to conditions: TE-671.

Series [11] has as its system Japanese encephalitis virus. The series is described as follows: Antiviral activity against Japanese encephalitis virus infected in human TE671 cells assessed as inhibition of intracellular virion production at 10 uM measured at 24 to 48 hrs post-infection by plaque assay. Format: functional, organism-based.
A further series has as its system Enterovirus A71. The series is described as follows: Antiviral activity against Enterovirus A71 infected in human RD cells assessed as reduction in viral yield measured at 48 hrs post-infection by plaque reduction assay. The class given is functional, organism-based. The note with it: Enterovirus A.
The subject of series [12] is Japanese encephalitis virus. Description: Antiviral activity against Japanese encephalitis virus infected in human TE671 cells assessed as reduction in viral yield treated immediately post-viral infection measured at 72 hrs post-infection by plaque assay. The class given is functional, organism-based. The note with it: TE-671, 72 h.
The test system of series [13] is Japanese encephalitis virus. Description: Antiviral activity against Japanese encephalitis virus infected in hamster BHK-21 cells assessed as reduction in viral yield treated immediately post-viral infection measured at 72 hrs post-infection by plaque assay. The class given is functional, organism-based. As to conditions: BHK-21, 72 h.

On to `CCOC(=O)C1=C(Nc2ccc(Br)cc2)OCC1=O`, for which the inhibition result in series [1], in series [6] and in series [7] was “Dose-dependent effect” each time. Further, the results for the IC50 in series [1], in series [6] and in [7] were 2 µM, 7.8 µM and 0.4 µM, respectively. Besides, the selectivity ratio in series [2] is 16.6. In [3], the inhibition result was “inactive”. Moreover, the inhibition result in series [4] and in series [5] was “Active” throughout. In series [8], the CC50 at 48 h stood at 129 µM.

Take `CCOC(=O)C1=C(Nc2ccccc2Cl)OCC1=O`: in series [1], the inhibition result is “Dose-dependent effect” and the IC50 is 50.5 µM. Also, in [5], the inhibition result was “Active”. In addition, in [8], the CC50 at 48 h is above 100 µM.

For the compound `CCOC(=O)C1=C(Nc2ccccc2Br)OCC1=O`, the IC50 was 10.2 µM in series [9]; 3.2 µM in [1]; 0.2 µM in series [10]; 4.6 µM in [6]; 0.2 µM in series [7]. Moreover, the inhibition entry in series [1], in series [6] and in series [7] was “Dose-dependent effect” each time. In addition, the selectivity ratio in series [2] came out at 50.2. Also, the inhibition entry in series [3], in series [5] and in series [11] was “Active” in each case. Besides, the CC50 at 48 h in [8] amounted to 232 µM.

Turning to `CCOC(=O)C1=C(Nc2cc(C)cc(C)c2)OCC1=O`, the IC50 was found to be 200 µM in the series with Enterovirus A71, 12.7 µM in series [12] and 12.7 µM in [13].

Regarding `CCOC(=O)C1=C(Nc2ccc(Cl)cc2)OCC1=O`, the inhibition entry in series [1] was “inactive”. Besides, the inhibition result in series [5] is “Active”. Also, the CC50 at 48 h in series [8] is above 100 µM.

With `CCOC(=O)C1=C(Nc2cccc(Cl)c2)OCC1=O`, in series [1], the inhibition result is “inactive”. Besides, in [5], the inhibition result was “Active”. Further, the CC50 at 48 h in series [8] was above 100 µM.

As for `CCOC(=O)C1=C(Nc2cccc(Br)c2)OCC1=O`, the inhibition result in [1], in series [6] and in series [7] was “Dose-dependent effect” in each case. Also, the IC50 amounted to 3.1 µM in series [1], 12.1 µM in [6] and 3.2 µM in series [7]. Also, the selectivity ratio in [2] amounted to 12.4. In addition, the inhibition result in [3], in [4] and in series [5] was “Active” each time. The CC50 at 48 h in [8] turned out to be 151 µM.

The record behind these values is ChEMBL document CHEMBL4406878, “Antiviral efficacy of bromo-anilino substituents of 4,5-dihydrofuran-3-carboxylate compound CW-33 against Japanese encephalitis virus” (Bioorg Med Chem Lett, 2019).
